Patent US20140255432A1, “SILVESTROL, SILVESTROL ANALOGS AND USES THEREOF” (priority 2011, published 2014)

Tests used:
[1] = test system: STAT1, STAT3, AKT and NF-κB p65; assay: Immunoblot of LMP-1 downstream pathways in LCL; format: cell-based, human
Description: Cells were harvested and lysed as described (Alinari 2011). Following collection of whole cell lysates, equal amounts of protein were resolved by SDS-PAGE and transferred onto a PVDF membrane (Millipore, Billerica, Mass.). Membrane was probed overnight at 4° C. with β-actin, pSTAT1, pSTAT3, STAT1, STAT3, pAkt, Akt (Cell Signaling Technology, Danvers, Mass.), or LMP-1 (DakoCytomation, Carpinteria, Calif.). After incubation with HRP-conjugated secondary antibody (Cell Signaling Technology), protein was detected with SuperSignal West Pico Chemiluminescent Substrate (Pierce, Rockford, Ill.).
Through its cytoplasmic C-terminal-activating region 1 (CTAR1), LMP-1 constitutively activates multiple pro-survival signaling pathways including NF-κB, PI3K/AKT, and STATs 1 and 3 (Shair 2007; Gires 1999; Dawson 2003; Kung 2008; Kung 2011) similar to an external growth stimulus. Thus, LMP-1 directly and indirectly promotes tumor cell growth and survival through diverse mechanisms. To investigate the effects of silvestrol on these pathways, LCLs were incubated for 24, 72, and 120 hr with vehicle or 10 nM silvestrol, and cell extracts were analyzed by immunoblot. […] Using the same treatment conditions, a decrease in the levels of both total Akt and its activated, phosphorylated form was observed. […] Total levels of NF-κB proteins such as p50, p105, and IKBa were unchanged (left panel), as were Bcl2 family proteins such as Bcl2, Mel1, and Bax (right panel) (FIG. 36).

[2] = test system: CD3-/CD19+ LCL and immune effector subsets; assay: Non-irradiated LCL / autologous PBMC co-cultures, flow cytometry; format: cell-based, human
Description: Lymphoblastoid cell lines (LCL) were derived in vivo by engrafting severe combined immune-deficient (SCID) mice (Taconic, Hudson N.Y.) with human peripheral blood mononuclear cells (PBMC) from a healthy EBV-positive donor as described (Rowe 1991; Baiocchi 1994). Co-cultures (Cocx) were created by mixing 5×10^4 LCL (either non-irradiated or irradiated with 14000 rad) per well with equal numbers of autologous PBMC in 96-well plates. Cultures were grown in the presence of 10 U/mL IL-2 and were given a single dose of silvestrol and cultured for 10-14 days.
Cells from irradiated or non-irradiated co-cultures were co-stained with LIVE/DEAD cell stain (Invitrogen, Grand Island, N.Y.) and hu-CD3-APC and either hu-CD4-PE, hu-CD-8-PE, hu-CD19-PE (BD Biosciences, San Diego, Calif.), or hu-CD56-PE (Beckman Coulter, Brea, Calif.). Live events were gathered by gating on cells negative for the LIVE/DEAD stain on an FC500 cytometer (Beckman Coulter). Cell viability was also measured by flow cytometry at 24, 72, and 120 hr using annexin-V-FITC and propidium iodide (PI) according to the manufacturer's instructions (BD Biosciences).
It was next examined how viable, non-irradiated LCL interacted with immune effectors in the presence of silvestrol, a situation closer to conditions that occur in vivo. CoCx were incubated in the presence of 10 U/mL IL-2. Specifically, LCL from three separate donors were incubated at a ratio of 1:1 with their respective autologous PBMCs for 10 days after adding a single dose of 0, 2, 5, or 10 nM silvestrol. On day 10, flow cytometric analysis was conducted. Live events were gathered by gating on cells negative for the LIVE/DEAD stain. Data are expressed as percentage of total viable population for (A) CD3^−/CD19^+ LCLs; (B) CD3^+/C4^+ helper T cells; (C) CD3^+/CD8^+ CTLs; or (D) CD3^−/CD56^+ NK cells. Left untreated, the transformed LCL (CD3^−/CD19^+) cells proliferated and matched the expansion of effectors lymphocyte subsets, approximately maintaining the 1:1 ratio (FIGS. 34A and 34E). […] Similarly, CD4^+ T cell percentages were reduced with increasing silvestrol concentrations (FIG. 34B). In contrast, CD8+ T cells and CD56^+ NK cell populations expanded in the presence of silvestrol, both as percent of population and absolute numbers (FIGS. 34C-34D).

NK cells against LCL = assay: Antibody-dependent cell-mediated cytotoxicity (ADCC) assay of NK cells with rituximab; format: cell-based, human
Description: Non-radioactive flow cytometry-based cytotoxicity assays have been described previously (Godoy-Ramirez 2005; Helguera 2011). Co-cultures of PBMC and irradiated LCL were grown in the presence or absence of silvestrol for 14 d and collected. Fresh autologous LCL cells were stained with 200 nM carboxyfluorescein diacetate succinimidyl ester (CFSE) (CellTrace™, Invitrogen) for 15 min at 25° C. prior to being mixed with effectors from the irradiated co-cultures at an effector:target (E:T) ratio of 20:1 for 4 hr at 37° C. After the incubation, cells were stained with 7-aminoactinomycin D (7AAD) (BD Biosciences, San Diego, Calif.) and washed. Cytotoxicity was measured by gating on the CFSE-positive events and measuring the 7AAD-positive cells. (See FIGS. 31 and 32). For antibody-dependent cell-mediated cytotoxicity (ADCC) assays the same technique was used; however, the co-cultured effectors were natural killer (NK) cell-enriched and were incubated in the presence or absence of 5 μg/mL rituximab or herceptin (negative control) (Genentech, Inc., South San Francisco, Calif.) for 4 hr at 37° C.
Next, antibody-dependent cell-mediated cytotoxicity (ADCC) assays were utilized to measure the innate immune response of NK cells to LCL in the presence of silvestrol. […] Fresh CFSE-labeled LCL targets and autologous NK cells were incubated with the monoclonal antibodies rituximab (anti-CD20, expressed on LCL) or herceptin (anti-HER2, not expressed on immune cells). After 4 hr, ADCC was evaluated using CFSE and 7-AAD staining as described above. Specifically, cytotoxicity was measured by CFSE^+/7AAD^+ events. Data are shown relative to the positive control (effectors+targets+ritux) and are the averages of three individual experiments. Bars show −/+ standard deviation.
To determine the acute effect of silvestrol on ADCC, fresh (non-autologous) NK cells were obtained from enriched leukocyte products, incubated 18 hr with or without 10 nM silvestrol, then washed and mixed with CFSE-stained LCL. […]

[3] = Pharmacokinetics work in mice; format: in vivo
[4] = single dose 2, 5, 10 nM, day 10, non-irradiated LCL

COC(=O)[C@H]1[C@@H](O)[C@@]2(O)c3c(OC)cc(O[C@@H]4O[C@@H]([C@H](O)CO)CO[C@H]4OC)cc3O[C@@]2(c2ccc(OC)cc2)[C@@H]1c1ccccc1 [silvestrol]
phosphorylated (activated) STAT1 level ([1]; 10 nM, 24, 72, 120 hr): decreased
phosphorylated (activated) STAT3 level ([1]; 10 nM, 24, 72, 120 hr): decreased
phosphorylated Akt level ([1]; 10 nM, 24, 72, 120 hr): a decrease
total Akt level ([1]; 10 nM, 24, 72, 120 hr): a decrease
total STAT1 level ([1]; 10 nM, 24, 72, 120 hr): remained unchanged
total STAT3 level ([1]; 10 nM, 24, 72, 120 hr): remained unchanged
total p65 levels ([1]; 10 nM, 24, 72, 120 hr): relatively unchanged
total levels of NF-κB proteins p50, p105, IKBa ([1]; FIG. 36 left panel): unchanged
Bcl2 family proteins Bcl2, Mcl1, Bax ([1]; FIG. 36 right panel): unchanged
CD19+ B cells in non-irradiated co-cultures ([2]; 2, 5, 10 nM, 14 days of culture (FIG. 16)): dose dependent loss
CD4+ T cell percentages [2, 4]: reduced
CD8+ T cell population (percent and absolute numbers) [2, 4]: expanded
CD56+ NK cell population (percent and absolute numbers) [2, 4]: expanded
viable EBV-LCL (CD3-/CD19+) [2, 4]: dose-dependent ablation
ADCC activity of NK cells incubated in media vs. silvestrol (NK cells against LCL; 10 nM, 24 hr pretreatment, DC9 LCLs (FIG. 19)): equivalent ADCC activity
ADCC activity of freshly isolated (non-autologous) NK cells (NK cells against LCL; 18 hr pre-incubation with 10 nM, p=0.854): no observable effect
rituximab-dependent cytotoxic activity of NK cells, expanded with vs. without silvestrol (NK cells against LCL; autologous NK cells, 10 nM for 14 days, p=0.838): similar
concentration attainable in vivo [3]: 10 nM
